Assay results taken from ChEMBL document CHEMBL5029172, “Neopentyl Glycol as a Scaffold to Provide Radiohalogenated Theranostic Pairs of High In Vivo Stability” (J Med Chem, 2021).

Experiments:
[1] = Metabolic stability in mouse liver microsomes assessed as intact fractions at […] preincubated for 5 min measured by TLC followed by RP-HPLC; format: ADME, Microsome; conditions: read-out: Activity
[2] = Biodistribution in ICR mouse stomach at 7.4 kBq, iv upto 24 hrs; format: ADME, organism-based; conditions: in vivo
[3] = Biodistribution in ICR mouse assessed as blood clearance by measuring elimination rate at 7.4 kBq, iv upto 24 hrs; format: ADME, organism-based; conditions: in vivo
[4] = Biodistribution in ICR mouse neck at 7.4 kBq, iv upto 24 hrs; format: ADME, organism-based; conditions: in vivo
[5] = Metabolic stability in mouse liver microsomes assessed as retention time at […] measured after 5 mins by RP-HPLC; format: ADME, Microsome
[6] = Metabolic stability in human liver microsomes assessed as intact fractions at […] preincubated for 5 min measured by TLC followed by RP-HPLC; format: ADME, Microsome; conditions: read-out: Activity
[7] = Drug metabolism in ICR mouse urine assessed as metabolite during retention time measured at 7.4 kBq, iv after 6 hrs by RP-HPLC followed by HILIC-HPLC analysis; format: ADME, organism-based
[8] = Metabolic stability in human liver microsomes assessed as retention time at […] measured after 5 mins by RP-HPLC; format: ADME, Microsome
[9] = Stability of compound in presence of GSH measured upto 24 hrs by TLC radiochromatogram; format: physicochemical
[10] = Metabolic stability in human liver microsomes assessed as intact fractions at 0.3 MBq preincubated for 5 min measured by TLC analysis; format: ADME, Microsome; conditions: read-out: Stability
[11] = Metabolic stability in mouse liver microsomes assessed as intact fractions at 0.3 MBq preincubated for 5 min measured by TLC analysis; format: ADME, Microsome; conditions: read-out: Stability

| remaining at 5 min [1] | Drug uptake [2] | CL [3] | Drug uptake [4] | Retention_time [5] | remaining at 5 min [6] | Drug excretion [7] | Retention_time [8] | Stability [9] | Compound | Drug metabolism [7] | remaining at 5 min, 0.3 MBq [10] | remaining at 5 min, 0.3 MBq [11] |
| --- | --- | --- | --- | --- | --- | --- | --- | --- | --- | --- | --- | --- |
| 72% | Not Active | Active | Not Active | 23.5 min | > 99.8% | Active | < 0.2 min | Stable | CCC(CO)(C[125I])Cn1ccnc1[N+](=O)[O-] (stereo unspecified) | – | – | – |
| > 99.8% | Not Active | Active | Not Active | < 0.2 min | > 99.8% | – | < 0.2 min | Stable | O=[N+]([O-])c1nccn1CC(CO)(CO)C[125I] | Metabolite_Detected | – | – |
| – | Not Active | Active | Not Active | – | – | Not Active | – | – | O=C(NCCn1ccnc1[N+](=O)[O-])c1cccc([125I])c1 | – | – | – |

Further lines, the compound ahead of its results:

| Compound | remaining at 5 min [1] | Drug uptake [2] | CL [3] | Drug uptake [4] | Retention_time [5] | remaining at 5 min [6] | Drug excretion [7] | Retention_time [8] | Stability [9] | Drug metabolism [7] | remaining at 5 min, 0.3 MBq [10] | remaining at 5 min, 0.3 MBq [11] |
| --- | --- | --- | --- | --- | --- | --- | --- | --- | --- | --- | --- | --- |
| O=C(O)[C@H]1O[C@@H](OCC(CO)(C[125I])Cn2ccnc2[N+](=O)[O-])[C@H](O)[C@@H](O)[C@@H]1O (stereo partly specified) | > 99.8% | – | – | – | < 0.2 min | > 99.8% | – | < 0.2 min | – | – | – | – |
| O=C(NCCn1ccnc1[N+](=O)[O-])c1cccc([211At])c1 | – | Active | Not Active | Active | – | – | – | – | – | – | – | – |
| CCC(C[125I])(CO[C@@H]1O[C@H](C(=O)O)[C@@H](O)[C@H](O)[C@H]1O)Cn1ccnc1[N+](=O)[O-] (stereo partly specified) | > 99.8% | – | – | – | < 0.2 min | > 99.8% | – | < 0.2 min | – | – | – | – |
| CCC(CC)(C[125I])Cn1ccnc1[N+](=O)[O-] | 2.2% | Active | Not Active | Active | 52.6 min | 1.5% | Active | 16.5 min | Stable | – | – | – |
| O=[N+]([O-])c1nccn1CC(CO)(CO)C[211At] | 96.9% | Not Active | Active | Not Active | – | 96.9% | – | – | Stable | Metabolite_Detected | 96.9% | 96.9% |
